Measurements: patent US11485980B2, “Method of meristem excision and transformation” (Monsanto Technology LLC, priority 2007, dated 2022)

Assays:
[1] = test system: cotton explants; experiment: Selection of transformed cotton explants with selective agent in tissue culture medium
[2] = test system: cotton explants; experiment: Spectinomycin in co-cultivation medium during Agrobacterium-mediated transformation; conditions: spectinomycin 50-100 ppm included in the co-cultivation medium; FIG. 8
Experimental: After the PlantconTM was closed, it was inserted into an appropriately sized holder, which was placed into a sonicator (e.g. L&R Ultrasonics QS140; L&R Manufacturing Co., […].; or a Honda […] sonicator, Honda, Denshi Japan). […] Sigma 526-36-23; Sigma Chemical Co, St. Louis, Mo.). After up to 5 min of sonication, the PlantconTM was placed securely on a shaker at 65-70 rpm or higher for 10 min for incubation. After inoculation, the Agrobacterium inoculum was removed from the PlantconTM. […] The INO medium may also be supplemented with plant growth regulators such as gibberellins (GA3), auxins (e.g. NAA, IBA, IAA, 2,4-D, dicamba, etc), cytokinins (e.g.

Compound	Stably transformed plants produced at concentrations (ppm) ([1]; selection agent in tissue culture medium, machine excised cotton explants after Agrobacterium co-cultivation)	Effect on transformation frequency (TF) [2]	Appearance of non-transformed tissues under selection ([1]; spectinomycin selection, transformed tissues green and properly developing, FIG. 5)
COc1c(Cl)ccc(Cl)c1C(=O)O [dicamba]	0.3		
CN[C@@H]1[C@H](O)[C@H](NC)[C@H]2O[C@@]3(O)C(=O)C[C@@H](C)O[C@H]3O[C@@H]2[C@H]1O [spectinomycin]		enhanced TF	bleached and often malformed
